Assay results reported in US10820591B2, “Substituted sulfonyl amides for controlling animal pests” (Bayer Aktiengesellschaft, priority 2016, dated 2020).

What was measured:
Format in all cases: in vivo
[1] = system: Meloidogyne incognita; experiment: Meloidogyne incognita test (sand, lettuce, gall formation); conditions: Meloidogyne incognita, 336 h, 20 ppm, after 14 days; read-out: nematicidal efficacy (formation of galls)
Summary of the method: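 Vessels held sand, diluted compound solution, M. incognita egg/larvae suspension and lettuce seeds, and the plants grew for 14 days. Efficacy in % came from root gall formation: 100% means no galls, 0% means galls equal to the untreated control.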

[2] = system: Myzus persicae; experiment: Myzus persicae spray test (Chinese cabbage leaf discs); conditions: foliar, 144 h, 500 g/ha, after 6 days, read-out: efficacy
Protocol: Myzus persicae—Spray Test [table] To produce a suitable active compound preparation, 1 part by weight of active compound is dissolved with the specified parts by weight of solvent and made up to the desired concentration with water containing an emulsifier concentration of 1000 ppm. To produce further test concentrations, the formulation is diluted with emulsifier-containing water. Discs of Chinese cabbage leaves (Brassica pekinensis) infested by all stages of the green peach aphid (Myzus persicae) are sprayed with an active compound preparation of the desired concentration. After 6 days, the efficacy in % is determined. 100% means that all the aphids have been killed; 0% means that no aphids have been killed.

[3] = system: Myzus persicae; experiment: Myzus persicae oral test; conditions: 120 h, 20 ppm, after 5 days, read-out: efficacy
Protocol: Myzus persicae—Oral Test [table] To produce a suitable active compound preparation, 1 part by weight of active compound is dissolved with the stated parts by weight of solvent and made up to the desired concentration with water. 50 μl of the active compound preparation are transferred into microtitre plates and made up to a final volume of 200 μl with 150 μl of IPL41 insect medium (33%+15% sugar). Subsequently, the plates are sealed with parafilm, which a mixed population of green peach aphids (Myzus persicae) within a second microtitre plate is able to puncture and imbibe the solution through it. After 5 days, the efficacy in % is determined. 100% means that all the aphids have been killed; 0% means that no aphids have been killed.

[4] = system: Tetranychus urticae; experiment: Tetranychus urticae spray test, OP-resistant; conditions: foliar, 144 h, bean leaf discs, after 6 days, read-out: efficacy
Protocol: Tetranychus urticae—Spray Test, OP-Resistant
To produce a suitable active compound preparation, 1 part by weight of active compound is dissolved with the specified parts by weight of solvent and made up to the desired concentration with water containing an emulsifier concentration of 1000 ppm. To produce further test concentrations, the formulation is diluted with emulsifier-containing water.
Discs of bean leaves (Phaseolus vulgaris) infested with all stages of the greenhouse red spider mite (Tetranychus urticae) are sprayed with an active compound preparation of the desired concentration.
After 6 days, the efficacy in % is determined. 100% means that all the spider mites have been killed; 0% means that no spider mites have been killed.

| SMILES | pest or weed control at 20 ppm [1] | further results |
| --- | --- | --- |
| COc1ccc(Cl)c(S(=O)(=O)NC(=O)c2cn(-c3cc(Cl)c(Br)c(Cl)c3)cn2)c1 [I-314] | 90% | pest or weed control at 500 g/ha [2]: 70% |
| Cc1nc(C(=O)NS(=O)(=O)c2c(Cl)cccc2Cl)cn1-c1cc(Cl)cc(Cl)c1 [I-317] | 100% | pest or weed control at 20 ppm [3]: 90%; pest or weed control at 500 g/ha [2]: 90% |
| O=C(NS(=O)(=O)c1cc(Cn2cccn2)ccc1Cl)c1cn(-c2cc(Cl)cc(C(F)(F)F)c2)cn1 [I-346] | 70% | pest or weed control at 500 g/ha [2]: 70% |
| Cc1nc(C(=O)NS(=O)(=O)c2c(F)cccc2NC(C)C)cn1-c1cc(F)cc(F)c1 [I-385] | 100% | pest or weed control at 500 g/ha [2]: 70% |
| CC(C)Nc1cccc(F)c1S(=O)(=O)NC(=O)c1cn(-c2cc(Cl)cc(Cl)c2)cn1 [I-392] | 100% | pest or weed control at 20 ppm [3]: 100%; pest or weed control at 500 g/ha [2]: 90% |
| COc1ccc(Cl)c(S(=O)(=O)NC(=O)c2cn(-c3cc(Cl)cc(C(F)(F)F)c3)c(C(C)C)n2)c1 [I-401] | 70% | pest or weed control at 500 g/ha [2]: 90% |
| CC(C)Oc1ccc(Cl)c(S(=O)(=O)NC(=O)c2nc(Cl)n(C3CC3C(F)(F)F)c2Cl)c1 (stereo not drawn) [I-460] | 100% | pest or weed control at 20 ppm [3]: 70% |
| Cn1cc(C(=O)NS(=O)(=O)c2ccccc2Cl)nc1C(F)(F)F [I-472] | 90% |  |
| Cn1cc(C(=O)NS(=O)(=O)c2ccccc2Br)nc1C(F)(F)F [I-473] | 90% |  |
| Cc1ccccc1S(=O)(=O)NC(=O)c1cn(C)c(C(F)(F)F)n1 [I-474] | 100% |  |
| COc1ccc(Cl)c(S(=O)(=O)NC(=O)c2cn(C)c(C(F)(F)F)n2)c1 [I-475] | 90% |  |
| CC(C)Sc1nc(C(=O)NS(=O)(=O)c2ccccc2Cl)cn1C [I-476] | 70% |  |
| Cc1ccccc1S(=O)(=O)NC(=O)c1cn(C)c(SC(C)C)n1 [I-477] | 90% |  |
| COc1ccccc1S(=O)(=O)NC(=O)c1cn(C)c(SC(C)C)n1 [I-478] | 70% |  |
| COc1ccc(Cl)c(S(=O)(=O)NC(=O)c2ncn(-c3ccccc3Cl)c2C(F)F)c1 [I-479] | 90% |  |
| COc1ccc(Cl)c(S(=O)(=O)NC(=O)c2ncn(-c3cccc(Cl)c3)c2C(F)F)c1 [I-480] | 90% |  |
| COc1ccc(Cl)c(S(=O)(=O)NC(=O)c2ncn(-c3ccc(Cl)cc3)c2C(F)F)c1 [I-481] | 70% |  |
| COc1ccc(Cl)c(S(=O)(=O)NC(=O)c2ncn(-c3ccc(Cl)cc3Cl)c2C(F)F)c1 [I-482] | 90% |  |
| COc1ccc(Cl)c(S(=O)(=O)NC(=O)c2ncn(-c3ccc(Cl)cc3Cl)c2C(C)C)c1 [I-484] | 70% |  |
| COc1ccc(Cl)c(S(=O)(=O)NC(=O)c2ncn(-c3cccc(Cl)c3)c2C2CC2)c1 [I-485] | 90% |  |
| COc1ccc(Cl)c(S(=O)(=O)NC(=O)c2ncn(-c3ccc(Cl)cc3Cl)c2C2CC2)c1 [I-486] | 70% |  |
| COc1ccc(Cl)c(S(=O)(=O)NC(=O)c2ncn(-c3c(F)cccc3F)c2C(F)F)c1 [I-487] | 100% |  |
| COc1ccc(Cl)c(S(=O)(=O)NC(=O)c2ncn(-c3cccc(Cl)c3)c2C(C)C)c1 [I-488] | 90% |  |
| COc1ccc(Cl)c(S(=O)(=O)NC(=O)c2ncn(-c3ccccc3Cl)c2C2CC2)c1 [I-489] | 90% |  |
| COc1ccc(Cl)c(S(=O)(=O)NC(=O)c2ncn(-c3cc(F)ccc3F)c2C2CC2)c1 [I-490] | 90% |  |
| COc1ccc(Cl)c(S(=O)(=O)NC(=O)c2ncn(-c3cc(F)ccc3F)c2C(C)C)c1 [I-491] | 100% |  |
| CC(C)S(=O)(=O)NC(=O)c1nc(Cl)n(CCC(F)(F)F)c1Cl [I-492] |  | pest or weed control at 500 g/ha [4]: 90% |
